Ki data for ten compounds are collected here from patent US8053553B2, “Targeting host proteinases as a therapeutic strategy against viral and bacterial pathogens” (Socpra Sciences Sante Et Humaines, priority 2007, dated 2011).

Residues, ends and D or L forms follow the SMILES beside them.

The target of the first experiment is T1, furin (Homo sapiens, UniProt P09958).
T1 construct: made in house; host or cells: Drosophila S2 cells (Invitrogen expression system)
T1 sequence (P09958 108-794 limits assumed): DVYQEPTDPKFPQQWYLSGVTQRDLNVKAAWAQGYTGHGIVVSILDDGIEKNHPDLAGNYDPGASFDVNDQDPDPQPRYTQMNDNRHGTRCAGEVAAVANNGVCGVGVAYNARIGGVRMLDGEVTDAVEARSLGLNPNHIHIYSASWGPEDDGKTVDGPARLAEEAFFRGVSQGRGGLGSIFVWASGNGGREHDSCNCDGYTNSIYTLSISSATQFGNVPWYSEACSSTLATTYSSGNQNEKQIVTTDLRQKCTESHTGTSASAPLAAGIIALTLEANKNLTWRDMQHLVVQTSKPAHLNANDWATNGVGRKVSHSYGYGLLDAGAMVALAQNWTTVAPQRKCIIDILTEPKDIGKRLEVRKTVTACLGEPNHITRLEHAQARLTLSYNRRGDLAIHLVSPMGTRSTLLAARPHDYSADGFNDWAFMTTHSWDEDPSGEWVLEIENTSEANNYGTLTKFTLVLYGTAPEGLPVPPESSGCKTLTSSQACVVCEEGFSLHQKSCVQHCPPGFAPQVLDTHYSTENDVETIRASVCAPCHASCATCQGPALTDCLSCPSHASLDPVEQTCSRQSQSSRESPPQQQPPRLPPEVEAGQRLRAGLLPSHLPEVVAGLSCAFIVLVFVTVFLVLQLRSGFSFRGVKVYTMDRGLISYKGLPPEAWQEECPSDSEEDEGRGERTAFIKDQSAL
In words: biochemical. As to conditions: furin, Pyr-RTKR-AMC substrate; alanine scanning mutagenesis of the H5 furin cleavage sequence (Table 2); read-out: Ki.
By Ki is commonly meant the dissociation constant of the complex between target and ligand, obtained from inhibition or displacement. With `C[C@H](N)C(=O)N[C@@H](C)C(=O)N[C@@H](C)C(=O)N[C@@H](CCC(=O)O)C(=O)N[C@@H](CCCNC(=N)N)C(=O)N[C@@H](CCCNC(=N)N)C(=O)N[C@@H](CCCNC(=N)N)C(=O)N[C@@H](CCCCN)C(=O)N[C@@H](CCCCN)C(=O)N[C@@H](CCCNC(=N)N)C(N)=O` (H-AAAERRRKKR-NH2), the Ki is over 100 nM.

`C[C@H](N)C(=O)N[C@@H](C)C(=O)N[C@@H](C)C(=O)N[C@@H](CCC(=O)O)C(=O)N[C@@H](CCCNC(=N)N)C(=O)N[C@@H](CCCNC(=N)N)C(=O)N[C@@H](CCCNC(=N)N)C(=O)N[C@@H](CCCCN)C(=O)N[C@@H](CCCCN)C(=O)N[C@@H](CCCNC(=N)N)C(=O)NCC(N)=O` (H-AAAERRRKKRG-NH2): the Ki is over 100 nM.

Take `CC(C)[C@H](NC(=O)[C@H](CCCNC(=N)N)NC(=O)[C@H](CCCCN)NC(=O)[C@H](CCCCN)NC(=O)[C@H](CCCNC(=N)N)NC(=O)[C@H](CCCNC(=N)N)NC(=O)[C@H](CCCNC(=N)N)NC(=O)[C@H](CCC(=O)O)NC(=O)[C@H](C)NC(=O)[C@H](C)NC(=O)[C@H](C)N)C(N)=O` (H-AAAERRRKKRV-NH2): the Ki was over 100 nM.

Consider `C[C@H](N)C(=O)N[C@@H](C)C(=O)N[C@@H](CCCNC(=N)N)C(=O)N[C@@H](CCC(=O)O)C(=O)N[C@@H](CCCNC(=N)N)C(=O)N[C@@H](CCCNC(=N)N)C(=O)N[C@@H](CCCNC(=N)N)C(=O)N[C@@H](CCCCN)C(=O)N[C@@H](CCCCN)C(=O)N[C@@H](CCCNC(=N)N)C(N)=O` (H-AARERRRKKR-NH2), for which the Ki is over 100 nM.

Turning to `C[C@H](N)C(=O)N[C@@H](C)C(=O)N[C@@H](CCCNC(=N)N)C(=O)N[C@@H](CCC(=O)O)C(=O)N[C@@H](CCCNC(=N)N)C(=O)N[C@@H](CCCNC(=N)N)C(=O)N[C@@H](CCCNC(=N)N)C(=O)N[C@@H](CCCCN)C(=O)N[C@@H](CCCCN)C(=O)N[C@@H](CCCNC(=N)N)C(=O)NCC(N)=O` (H-AARERRRKKRG-NH2), the Ki is over 100 nM.

Still in this experiment, the particulars now being: furin, Pyr-RTKR-AMC substrate; optimization of the inhibitory peptides (Table 3); read-out: Ki.
With `C[C@@H](O)[C@H](N)C(=O)N1CCC[C@H]1C(=O)N[C@@H](CCC(N)=O)C(=O)N[C@@H](CCCNC(=N)N)C(=O)N[C@@H](CCCCN)C(=O)N[C@@H](CCCNC(=N)N)C(=O)N[C@@H](CCCNC(=N)N)C(=O)N[C@@H](CCCNC(=N)N)C(=O)N[C@@H](CCCCN)C(=O)N[C@@H](CCCCN)C(=O)N[C@@H](CCCNC(=N)N)C(=O)NCC(N)=O`, the Ki is over 100 nM.

Take `CC(C)C[C@H](NC(=O)[C@H](CCCNC(=N)N)NC(=O)[C@H](CCC(N)=O)NC(=O)[C@@H]1CCCN1C(=O)[C@@H](N)[C@@H](C)O)C(=O)N[C@@H](CCCNC(=N)N)C(=O)N[C@@H](CCCNC(=N)N)C(=O)N[C@@H](CCCNC(=N)N)C(=O)N[C@@H](CCCCN)C(=O)N[C@@H](CCCCN)C(=O)N[C@@H](CCCNC(=N)N)C(=O)NCC(N)=O`: the Ki was over 100 nM.

For `CSCC[C@H](NC(=O)[C@H](CCCNC(=N)N)NC(=O)[C@H](CCC(N)=O)NC(=O)[C@@H]1CCCN1C(=O)[C@@H](N)[C@@H](C)O)C(=O)N[C@@H](CCCNC(=N)N)C(=O)N[C@@H](CCCNC(=N)N)C(=O)N[C@@H](CCCNC(=N)N)C(=O)N[C@@H](CCCCN)C(=O)N[C@@H](CCCCN)C(=O)N[C@@H](CCCNC(=N)N)C(=O)NCC(N)=O`, the Ki was over 100 nM.

For the compound `C[C@@H](O)[C@H](N)C(=O)N1CCC[C@H]1C(=O)N[C@@H](CCC(N)=O)C(=O)N[C@@H](CCCNC(=N)N)C(=O)N[C@@H](CCCNC(=N)N)C(=O)N[C@@H](CCCNC(=N)N)C(=O)N[C@@H](CCCNC(=N)N)C(=O)N[C@@H](CCCNC(=N)N)C(=O)N[C@@H](CCCCN)C(=O)N[C@@H](CCCCN)C(=O)N[C@@H](CCCNC(=N)N)C(=O)NCC(N)=O`, the Ki is over 100 nM.

Staying with this experiment, now noted: read-out: Ki.
With `C[C@H](NC(=O)[C@H](CCCNC(=N)N)NC(=O)[C@@H]1CCCN1C(=O)[C@@H](N)[C@@H](C)O)C(=O)N[C@@H](CCCNC(=N)N)C(=O)N[C@@H](CCCNC(=N)N)C(=O)N[C@@H](CCCNC(=N)N)C(=O)N[C@@H](CCCCN)C(=O)N[C@@H](CCCCN)C(=O)N[C@@H](CCCNC(=N)N)C(=O)N[C@@H](CC(=O)O)C(N)=O`, the Ki was determined as 56 nM.
